This note sets out measurements from article PMC8580252, “Parasitic nematode fatty acid- and retinol-binding proteins compromise host immunity by interfering with host lipid signaling pathways” (PLoS Pathogens, 2021).

This experiment addresses T1, Sc-FAR-2 (Steinernema carpocapsae, UniProt A0A4U5NI02).
T1 construct: gene L596_016036; mature protein (signal peptide removed), N-terminal His6 tag cut off with TEV protease, E. coli BL21-CodonPlus, about 20 kDa family
Kind of experiment: fluorescence titration, one-site fit. In kind it is binding.

Structures are written as SMILES.

T1 sequence (A0A4U5NI02 entry or part of it): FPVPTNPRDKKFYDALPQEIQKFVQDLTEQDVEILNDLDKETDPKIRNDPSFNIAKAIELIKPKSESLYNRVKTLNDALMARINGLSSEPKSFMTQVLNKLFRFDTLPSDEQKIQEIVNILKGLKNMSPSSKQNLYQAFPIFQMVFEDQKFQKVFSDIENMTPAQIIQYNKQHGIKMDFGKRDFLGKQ

For `CN(C)c1cccc2c(S(=O)(=O)NCCCCCCCCCCC(=O)O)cccc12` [DAUDA], the equilibrium dissociation constant (Kd) (commonly a measure of binding affinity in units of concentration) was 21.8 µM.
